IC50 data for 28 molecules are collected here from patent US20240207263A1, “SELECTIVE MODULATORS OF ATAXIA TELA[…] (ATM) KINASE AND USES THEREOF” (priority 2021, published 2024).

ATM, sequence (Q13315 whole entry, looked up): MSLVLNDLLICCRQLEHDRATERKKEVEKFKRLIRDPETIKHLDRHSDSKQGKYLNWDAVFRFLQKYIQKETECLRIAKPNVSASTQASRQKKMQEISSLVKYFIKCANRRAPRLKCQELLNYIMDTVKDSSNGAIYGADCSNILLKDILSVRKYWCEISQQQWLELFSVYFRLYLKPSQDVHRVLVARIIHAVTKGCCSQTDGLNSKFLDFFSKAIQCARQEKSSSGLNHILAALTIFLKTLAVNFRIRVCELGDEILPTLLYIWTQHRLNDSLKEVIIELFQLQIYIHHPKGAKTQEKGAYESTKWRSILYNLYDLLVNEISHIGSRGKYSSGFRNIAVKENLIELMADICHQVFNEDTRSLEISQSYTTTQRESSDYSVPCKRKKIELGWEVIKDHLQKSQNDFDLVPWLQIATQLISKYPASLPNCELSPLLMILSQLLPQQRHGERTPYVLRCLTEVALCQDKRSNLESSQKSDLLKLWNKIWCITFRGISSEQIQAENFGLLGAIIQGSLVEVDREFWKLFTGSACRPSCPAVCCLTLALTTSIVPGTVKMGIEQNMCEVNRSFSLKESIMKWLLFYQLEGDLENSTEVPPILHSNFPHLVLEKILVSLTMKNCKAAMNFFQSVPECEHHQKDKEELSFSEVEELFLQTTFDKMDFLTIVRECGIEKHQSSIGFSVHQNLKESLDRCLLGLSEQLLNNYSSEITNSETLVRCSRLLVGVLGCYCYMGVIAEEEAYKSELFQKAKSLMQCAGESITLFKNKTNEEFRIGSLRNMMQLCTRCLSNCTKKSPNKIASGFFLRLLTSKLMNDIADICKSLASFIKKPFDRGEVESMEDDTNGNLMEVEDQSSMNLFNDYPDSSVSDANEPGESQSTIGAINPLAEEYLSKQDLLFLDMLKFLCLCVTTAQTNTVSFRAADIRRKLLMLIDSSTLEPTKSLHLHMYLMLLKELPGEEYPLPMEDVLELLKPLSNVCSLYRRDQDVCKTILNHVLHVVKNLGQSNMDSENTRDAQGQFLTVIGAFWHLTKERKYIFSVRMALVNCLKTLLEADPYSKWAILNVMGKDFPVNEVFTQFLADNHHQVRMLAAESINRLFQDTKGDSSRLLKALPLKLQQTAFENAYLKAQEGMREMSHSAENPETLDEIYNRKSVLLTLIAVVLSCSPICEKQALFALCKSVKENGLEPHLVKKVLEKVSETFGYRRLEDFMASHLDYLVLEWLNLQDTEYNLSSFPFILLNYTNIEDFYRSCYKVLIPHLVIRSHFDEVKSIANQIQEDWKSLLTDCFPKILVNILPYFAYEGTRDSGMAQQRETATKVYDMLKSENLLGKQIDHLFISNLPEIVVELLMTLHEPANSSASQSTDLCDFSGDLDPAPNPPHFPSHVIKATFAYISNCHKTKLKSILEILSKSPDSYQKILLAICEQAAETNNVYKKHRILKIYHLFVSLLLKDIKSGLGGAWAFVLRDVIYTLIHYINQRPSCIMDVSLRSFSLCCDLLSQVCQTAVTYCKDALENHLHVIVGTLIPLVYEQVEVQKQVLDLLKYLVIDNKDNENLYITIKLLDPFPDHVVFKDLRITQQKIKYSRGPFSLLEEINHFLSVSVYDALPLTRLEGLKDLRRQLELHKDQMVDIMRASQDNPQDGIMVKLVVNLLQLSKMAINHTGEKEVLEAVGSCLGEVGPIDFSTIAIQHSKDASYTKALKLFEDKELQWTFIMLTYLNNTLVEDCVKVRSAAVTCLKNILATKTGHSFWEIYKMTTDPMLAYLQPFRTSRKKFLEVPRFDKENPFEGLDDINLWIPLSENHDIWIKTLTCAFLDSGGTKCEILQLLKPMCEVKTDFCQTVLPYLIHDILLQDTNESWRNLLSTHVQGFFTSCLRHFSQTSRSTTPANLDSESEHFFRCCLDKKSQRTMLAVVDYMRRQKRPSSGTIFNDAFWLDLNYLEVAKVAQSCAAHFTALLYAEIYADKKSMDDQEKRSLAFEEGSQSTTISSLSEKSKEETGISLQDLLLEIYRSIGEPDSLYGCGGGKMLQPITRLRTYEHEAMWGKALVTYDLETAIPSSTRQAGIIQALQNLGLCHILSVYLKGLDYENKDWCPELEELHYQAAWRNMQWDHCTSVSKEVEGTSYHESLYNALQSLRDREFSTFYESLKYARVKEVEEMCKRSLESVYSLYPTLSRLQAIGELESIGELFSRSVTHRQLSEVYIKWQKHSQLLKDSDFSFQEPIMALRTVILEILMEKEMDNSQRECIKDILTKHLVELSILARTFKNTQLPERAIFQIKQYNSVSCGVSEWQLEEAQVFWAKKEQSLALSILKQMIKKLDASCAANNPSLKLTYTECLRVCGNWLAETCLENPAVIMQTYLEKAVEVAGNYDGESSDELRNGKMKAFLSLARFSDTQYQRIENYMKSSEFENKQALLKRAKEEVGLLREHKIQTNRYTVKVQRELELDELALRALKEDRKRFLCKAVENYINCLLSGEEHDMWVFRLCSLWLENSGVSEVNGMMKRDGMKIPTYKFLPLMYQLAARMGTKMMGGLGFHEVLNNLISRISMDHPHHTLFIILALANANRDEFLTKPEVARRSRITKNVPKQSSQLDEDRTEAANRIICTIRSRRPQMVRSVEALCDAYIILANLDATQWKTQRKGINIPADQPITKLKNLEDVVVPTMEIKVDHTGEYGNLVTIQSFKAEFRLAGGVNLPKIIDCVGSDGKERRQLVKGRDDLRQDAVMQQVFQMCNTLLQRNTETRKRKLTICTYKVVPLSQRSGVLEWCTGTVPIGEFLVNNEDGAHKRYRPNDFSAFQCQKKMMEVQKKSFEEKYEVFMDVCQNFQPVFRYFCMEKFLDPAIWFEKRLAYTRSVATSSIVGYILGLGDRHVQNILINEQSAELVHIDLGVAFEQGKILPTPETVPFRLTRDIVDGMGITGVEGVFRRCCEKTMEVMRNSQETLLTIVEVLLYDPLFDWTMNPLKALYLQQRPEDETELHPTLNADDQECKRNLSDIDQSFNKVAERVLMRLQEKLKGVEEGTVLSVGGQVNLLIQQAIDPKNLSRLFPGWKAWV

The target in this assay is ATM (Homo sapiens (Human), UniProt Q13315). The experiment in a line: biochemical. The class given is biochemical. Particulars: read-out: ATM IC50. From the text:
Assay a): ATM Biochemical Potency
Data was collected by Caliper.
`CC(C)n1c(=O)n(C)c2nnc3cc(F)c(-c4ccc([C@@H](C)OCCN5CC6CC6C5)nc4)cc3c21` (stereo partly drawn) [Example 143, 8-(6-((1R)-1-(2-(3-azabicyclo[3.1.0]hexan-3-yl)ethoxy)ethyl)pyridin-3-yl)-7-fluoro-1-isopropyl-3-methyl-1H-imidazo[4,5-c]cinnolin-2(3H)-one]: the IC50 came out at 0.011 µM.
`CC(C)n1c(=O)n(C)c2nnc3ccc(-c4ccc([C@@H](C)OCCN5CCC(C#N)CC5)nc4)cc3c21` [Example 91, (R)-1-(2-(1-(5-(1-isopropyl-3-methyl-2-oxo-2,3-dihydro-1H-imidazo[4,5-c]cinnolin-8-yl)pyridin-2-yl)ethoxy)ethyl)piperidine-4-carbonitrile]: the IC50 amounted to 0.0085 µM.
Regarding `CO[C@H]1C[C@@H](n2c(=O)n(C)c3nnc4ccc(-c5ccc(COCCN6CCCCC6)nc5)cc4c32)C1` [Example 173, 1-(cis-3-methoxycyclobutyl)-3-methyl-8-(6-((2-(piperidin-1-yl)ethoxy)methyl)pyridin-3-yl)-1H-imidazo[4,5-c]cinnolin-2(3H)-one], the IC50 is 0.032 µM.
In the case of `CC(C)OC1CCN(CCO[C@H](C)c2ccc(-c3ccc4nnc5c(c4c3)n(C(C)C)c(=O)n5C)cn2)CC1` [Example 92, (R)-8-(6-(1-(2-(4-isopropoxypiperidin-1-yl)ethoxy)ethyl)pyridin-3-yl)-1-isopropyl-3-methyl-1H-imidazo[4,5-c]cinnolin-2(3H)-one], the IC50 came out at 0.0015 µM.
On to `CC(C)n1c(=O)n(C)c2nnc3ccc(-c4ccc(COCCN5CCCC6(CCC6)C5)nc4)cc3c21` [Example 40, 8-(6-((2-(6-azaspiro[3.5]nonan-6-yl)ethoxy)methyl)pyridin-3-yl)-1-isopropyl-3-methyl-1H-imidazo[4,5-c]cinnolin-2(3H)-one], for which the IC50 is 0.024 µM.
As for `CC(C)n1c(=O)n(C)c2nnc3ccc(-c4ccc(COCC5CCN(C)C5)nc4)cc3c21` (stereo not shown) [Example 20, 1-isopropyl-3-methyl-8-(6-(((1-methylpyrrolidin-3-yl)methoxy)methyl)pyridin-3-yl)-1H-imidazo[4,5-c]cinnolin-2(3H)-one], the IC50 was 0.051 µM.
Then `CC(C)n1c(=O)n(C)c2nnc3ccc(-c4ccc(COCCN5CC[C@H](F)C5)nc4)cc3c21` [Example 34, (S)-8-(6-((2-(3-fluoropyrrolidin-1-yl)ethoxy)methyl)pyridin-3-yl)-1-isopropyl-3-methyl-1H-imidazo[4,5-c]cinnolin-2(3H)-one], with 0.047 µM; and `CC(C)n1c(=O)n(C)c2nnc3ccc(-c4ccc(COCCN5CCOCC5)nc4)cc3c21` [Example 33, 1-isopropyl-3-methyl-8-(6-((2-morpholinoethoxy)methyl)pyridin-3-yl)-1H-imidazo[4,5-c]cinnolin-2(3H)-one], with 0.058 µM; and `Cn1c(=O)n(C2CCOCC2)c2c3cc(-c4ccc(COCCN5CC6CC6C5)nc4)ccc3nnc21` (stereo not shown) [Example 98, 8-(6-((2-(3-azabicyclo[3.1.0]hexan-3-yl)ethoxy)methyl)pyridin-3-yl)-3-methyl-1-(tetrahydro-2H-pyran-4-yl)-1H-imidazo[4,5-c]cinnolin-2(3H)-one], with 0.062 µM.
Then `CO[C@H]1CCN(CCO[C@@H](C)c2ccc(-c3ccc4nnc5c(c4c3)n(C(C)C)c(=O)n5C)cn2)C1` [Example 65, 1-isopropyl-8-(6-((S)-1-(2-((S)-3-methoxypyrrolidin-1-yl)ethoxy)ethyl)pyridin-3-yl)-3-methyl-1H-imidazo[4,5-c]cinnolin-2(3H)-one], with 0.167 µM; and `CC(C)n1c(=O)n(C)c2nnc3cc(F)c(-c4ccc([C@@H](C)OCCN5CCC(F)CC5)nc4)cc3c21` [Example 136, (R)-7-fluoro-8-(6-(1-(2-(4-fluoropiperidin-1-yl)ethoxy)ethyl)pyridin-3-yl)-1-isopropyl-3-methyl-1,3-dihydro-2H-imidazo[4,5-c]cinnolin-2-one], with 0.01 µM.
Then `C[C@@H](OCCN1CCCC1)c1ccc(-c2ccc3nnc4c(c3c2)n(C2CCOCC2)c(=O)n4C)cn1` [Example 121, (R)-3-methyl-8-(6-(1-(2-(pyrrolidin-1-yl)ethoxy)ethyl)pyridin-3-yl)-1-(tetrahydro-2H-pyran-4-yl)-1H-imidazo[4,5-c]cinnolin-2(3H)-one], with 0.013 µM.
For `Cn1c(=O)n(C2CCOCC2)c2c3cc(-c4ccc(COCCN5CCC(C)(C)CC5)nc4)ccc3nnc21` [Example 96, 8-(6-((2-(4,4-dimethylpiperidin-1-yl)ethoxy)methyl)pyridin-3-yl)-3-methyl-1-(tetrahydro-2H-pyran-4-yl)-1H-imidazo[4,5-c]cinnolin-2(3H)-one], the IC50 amounted to 0.017 µM.
On to `CC(C)n1c(=O)n(C)c2nnc3ccc(-c4ccc([C@@H](C)OCCN5CC6CC6C5)nc4)cc3c21` (stereo partly drawn) [Example 66, 8-(6-((1R)-1-(2-(3-azabicyclo[3.1.0]hexan-3-yl)ethoxy)ethyl)pyridin-3-yl)-1-isopropyl-3-methyl-1H-imidazo[4,5-c]cinnolin-2(3H)-one], for which the IC50 is 0.01 µM.
Turning to `CC(C)n1c(=O)n(C)c2nnc3cc(F)c(-c4ccc([C@@H](C)OCCN5CCC(C)(C)CC5)nc4)cc3c21` [Example 139, (R)-8-(6-(1-(2-(4,4-dimethylpiperidin-1-yl)ethoxy)ethyl)pyridin-3-yl)-7-fluoro-1-isopropyl-3-methyl-1H-imidazo[4,5-c]cinnolin-2(3H)-one], the IC50 was 0.0028 µM.
As for `COC1CCN(CCOCc2ccc(-c3ccc4nnc5c(c4c3)n(C(C)C)c(=O)n5C)cn2)CC1` [Example 27, 1-isopropyl-8-(6-((2-(4-methoxypiperidin-1-yl)ethoxy)methyl)pyridin-3-yl)-3-methyl-1H-imidazo[4,5-c]cinnolin-2(3H)-one], the IC50 was determined as 0.092 µM.
For the molecule `CC(C)n1c(=O)n(C)c2nnc3ccc(-c4ccc(COC5CC(N(C)C)C5)nc4)cc3c21` (stereo not shown) [Example 14, 8-(6-((3-(dimethylamino)cyclobuto-xy)methyl)pyridin-3-yl)-1-isopropyl-3-methyl-1H-imidazo[4,5-c]cinnolin-2(3H)-one], the IC50 turned out to be 0.068 µM.
For the molecule `CC(C)n1c(=O)n(C)c2nnc3ccc(-c4ccc(COCCN5CC[C@@H](N(C)C)C5)nc4)cc3c21` [Example 46, (R)-8-(6-((2-(3-(dimethylamino)pyrrolidin-1-yl)ethoxy)methyl)pyridin-3-yl)-1-isopropyl-3-methyl-1H-imidazo[4,5-c]cinnolin-2(3H)-one], the IC50 amounted to 0.076 µM.
As to `CC(C)n1c(=O)n(C)c2nnc3ccc(-c4ccc(COCCN5CC[C@@H](OC(F)F)C5)nc4)cc3c21` [Example 50, (R)-8-(6-((2-(3-(difluoromethoxy)pyrrolidin-1-yl)ethoxy)methyl)pyridin-3-yl)-1-isopropyl-3-methyl-1H-imidazo[4,5-c]cinnolin-2(3H)-one], the IC50 worked out at 0.011 µM.
For the molecule `CO[C@H]1C[C@H](n2c(=O)n(C)c3nnc4ccc(-c5ccc(COCCN(C)C)nc5)cc4c32)C1` [Example 165, 8-(6-((2-(dimethylamino)ethoxy)methyl)pyridin-3-yl)-1-(trans-3-methoxycyclobutyl)-3-methyl-1H-imidazo[4,5-c]cinnolin-2(3H)-one], the IC50 is 0.101 µM.
Regarding `CCC(OCCN1CCCC1)c1ccc(-c2ccc3nnc4c(c3c2)n(C(C)C)c(=O)n4C)cn1` (stereo not shown) [Example 219, 1-isopropyl-3-methyl-8-(6-(1-(2-(pyrrolidin-1-yl)ethoxy)propyl)pyridin-3-yl)-1H-imidazo[4,5-c]cinnolin-2(3H)-one], the IC50 turned out to be 0.057 µM.
For the molecule `C[C@@H](OCCN1CC[C@@H](OC(F)F)C1)c1ccc(-c2cc3c(cc2F)nnc2c3n(C3CCOCC3)c(=O)n2C)cn1` [Example 155, 8-(6-((R)-1-(2-((R)-3-(difluoromethoxy)pyrrolidin-1-yl)ethoxy)ethyl)pyridin-3-yl)-7-fluoro-3-methyl-1-(tetrahydro-2H-pyran-4-yl)-1H-imidazo[4,5-c]cinnolin-2(3H)-one], the IC50 came out at 0.011 µM.
Take `CC(C)n1c(=O)n(C)c2nnc3ccc(-c4ccc(COCCN5CC[C@H](N(C)C)C5)nc4)cc3c21` [Example 42, (S)-8-(6-((2-(3-(dimethylamino)pyrrolidin-1-yl)ethoxy)methyl)pyridin-3-yl)-1-isopropyl-3-methyl-1H-imidazo[4,5-c]cinnolin-2(3H)-one]: the IC50 amounted to 0.044 µM.
As to `C[C@@H](OCCN1CCC(C)(C)CC1)c1ccc(-c2cc3c(cc2F)nnc2c3n(C3CCOCC3)c(=O)n2C)cn1` [Example 149, (R)-8-(6-(1-(2-(4,4-dimethylpiperidin-1-yl)ethoxy)ethyl)pyridin-3-yl)-7-fluoro-3-methyl-1-(tetrahydro-2H-pyran-4-yl)-1H-imidazo[4,5-c]cinnolin-2(3H)-one], the IC50 is 0.015 µM.
Regarding `CC(C)n1c(=O)n(C)c2nnc3ccc(-c4ccc(C(C)(C)OCCN5CC6CC6C5)nc4)cc3c21` (stereo not shown) [Example 217, 8-(6-(2-(2-(3-azabicyclo[3.1.0]hexan-3-yl)ethoxy)propan-2-yl)pyridin-3-yl)-1-isopropyl-3-methyl-1H-imidazo[4,5-c]cinnolin-2(3H)-one], the IC50 is 0.072 µM.
In the case of `COC1CCCN(CCOCc2ccc(-c3ccc4nnc5c(c4c3)n(C(C)C)c(=O)n5C)cn2)C1` (stereo not shown) [Example 41, 1-isopropyl-8-(6-((2-(3-methoxypiperidin-1-yl)ethoxy)methyl)pyridin-3-yl)-3-methyl-1H-imidazo[4,5-c]cinnolin-2(3H)-one], the IC50 came out at 0.05 µM.
Then `COC1CCN(CCOCc2ccc(-c3ccc4nnc5c(c4c3)n(C(C)C)c(=O)n5C)cn2)CC1` [Example 44, 1-isopropyl-8-(6-((2-(4-methoxypiperidin-1-yl)ethoxy)methyl)pyridin-3-yl)-3-methyl-1H-imidazo[4,5-c]cinnolin-2(3H)-one], with 0.012 µM; and `CO[C@H]1C[C@@H](n2c(=O)n(C)c3nnc4ccc(-c5ccc([C@@H](C)OCCN6CCC7(CC7)C6)nc5)cc4c32)C1` [Example 171, 8-(6-((R)-1-(2-(5-azaspiro[2.4]heptan-5-yl)ethoxy)ethyl)pyridin-3-yl)-1-(cis-3-methoxycyclobutyl)-3-methyl-1H-imidazo[4,5-c]cinnolin-2(3H)-one], with 0.0025 µM.

For orientation: IC50 means the concentration that gives 50% inhibition.
